Read-outs that look alike come from different tables or passages of the source.

We go through seven compounds from publication PMC9440176, “Novel benzylidene benzofuranone analogues as potential anticancer agents: design, synthesis and in vitro evaluation based on CDK2 inhibition assays” (3 Biotech, 2022).

Assay [1] deals with HCT 116 cell lines. In words: Cell cycle analysis (PI, FACS). The format is cell-based, Human. As to conditions: standard at 25 μM. The procedure: The cell cycle analysis was followed where 1 × 10^6 cells were seeded and cultured for 24 h in a 6-well plate containing 2 ml of the media. Cells were then treated with desired concentrations of the given samples that were prepared in media and further incubated for another 24 h. Cells were then harvested and centrifuged at 2000 rpm for 5 min at room temperature and the supernatant was discarded carefully retaining the cell pellet. Cell pellet was then washed by resuspending in 2 ml of 1XPBS. The washing was repeated another time under the same conditions. Further, the supernatant was discarded retaining the pellet. Cells were then fixed by resuspending in 300 µL of Sheath fluid followed by the addition of 1 ml of chilled 70% ethanol drop by drop gently with continuous shaking and one more mL of the same at once. The cells were then stored at 4 °C overnight. Post fixing, the cells were centrifuged at 2000 rpm for 5 min washed twice with 2 ml of cold 1XPBS and suspended in 450 µL of sheath fluid containing 0.05 mg/ml PI (Propidium iodide), 0.05 mg/ml RNase A and incubated for 15 min in the dark (Kasibhatla et al. [2006]).The percentage of cells in various stages of cell cycle both in the treated as well as un-treated populations was determined using FACS Caliber (BD Biosciences, San Jose, CA).

The subject of assay [2] is MCF-7. In words: MTT cytotoxicity assay on MCF-7. Type of assay: cell-based. As to conditions: read-out: Inhibition of cell proliferation, IC50, MCF-7. The procedure:
(§1) The monolayer cell culture was trypsinized and the cell count was adjusted to 5.0 × 10^5 cells/ml using respective media containing 10% FBS. To each well of the 96-well microtiter plate, 100 µL of the diluted cell suspension (50,000cells/well) was added. After 24 h, when a partial monolayer was formed, the supernatant was flicked off, the monolayer was then washed once again with the medium and 100 µL of different test concentrations of test drugs were added on to the partial monolayer in microtiter plates. The plates were then incubated at 37 °C for 24 h in 5% CO2 atmosphere. After incubation, the test solutions in the wells were discarded and 100 µL of MTT (5 mg/10 ml of MTT in PBS) was added to each well. The plates were then incubated for 4 h at 37 °C in 5% CO2 atmosphere. The supernatant was then removed and 100 µL of DMSO was added and the plates were gently shaken to solubilize the formed formazan. The absorbance was measured using a microtiter plate reader at a wavelength of 590 nm. The percentage growth inhibition was thus calculated using the following formula and the concentration of the test drug required to inhibit the cell growth by 50% (IC50) values is generated from the dose–response curves for each one of the cell lines (Meerloo et al. [2011]).
(§2) The test compounds were screened for their in vitro cytotoxicity by MTT assay against two cancer cell lines, namely MCF-7, HCT-116 and normal epithelial kidney cells (Vero). Doxorubicin was used as a reference standard.
In general terms: Tetrazolium dyes change colour on reduction, which living cells bring about.

The subject of assay [3] is HCT 116. Nature of the assay: MTT cytotoxicity assay on HCT 116. Type of assay: cell-based, Human. As to conditions: read-out: Inhibition of cell proliferation, IC50, HCT 116. The procedure:
as §1, §2

The test system of assay [4] is normal epithelial kidney cells (Vero). Nature of the assay: MTT cytotoxicity assay on Vero. The format is cell-based. Conditions: 24 h, read-out: Inhibition of cell proliferation, IC50, Vero. The procedure: as §1, §2
Assay [5] relates to HCT-116 cells. In words: Apoptosis detection by propidium iodide / Annexin V-FITC. The format is cell-based, Human. Further details: FACS analysis of apoptosis detection, Viable cells / FACS analysis of apoptosis detection, Early apoptotic / FACS analysis of apoptosis detection, Late apoptotic / FACS analysis of apoptosis detection, Necrotic: unit not given here. Conditions: 20 μM. The protocol:
The day before induction of apoptosis, 1 × 10^6cells per well were plated on a 6-well plate using respective media with 10% FBS and 1% PenStrep, incubated overnight at 37 °C at 5% CO2.The media was replaced with test solutions of different concentrations in the media containing 10% FBS. The treated cells were incubated for 24 h at normal culture conditions. The cells were further harvested and the well contents were completely transferred into the sterile FACS tubes. The cell contents were centrifuged at 2000 rpm for 5 min and the supernatant was discarded. After centrifugation, the cells were washed twice with cold PBS and then resuspended in 1 ml of binding buffer at a concentration of 1× 10^6 cells/ml. […] of the cell suspension (5× 10^5 cells) were then transferred into a fresh FACS tube (Vermes et al. [1995]). Further, cells were gently mixed with […] of propidium iodide and […] of Annexin V before being incubated for 20 minutes at room temperature in the dark. The cells were immediately analyzed by flow cytometer within a duration of an hour.

Assay [6] is described as follows: ABTS.+ radical scavenging assay. The procedure: The assay was performed in a 96-well plate by serial dilution method. A 2 mM ABTS^.+ working solution was prepared in a phosphate buffer (Zheleva-Dimitrova et al [2010]).To this, 200 μL of aqueous potassium per sulfate (70 mM) solution was added and the solution was incubated for 24 h in the dark at room temperature to develop a blue-green color. To 30 μL of ABTS^.+ working solution, 50 μL of different concentrations (3.9–1000 μM) of the test sample solution and 170 μL of phosphate buffer (pH-7.4) were added in a well. The plate was then incubated in the dark at room temperature for 10 min. Then absorbance was measured at 690 nm using Elisa reader. Quercetin and ascorbic acid were used as standards. The percentage scavenging of ABTS^.+ was calculated using the formula, (Control Absorbance–Test Absorbance)*100/(Control Absorbance) and the anti-oxidant activity was expressed in terms of IC50 value.

Assay [7] is described as follows: DPPH. free radical scavenging assay. The protocol: DPPH. assay was performed using 96-well plate by serial dilution method. The dilution of methanolic stock solution of the test compounds and standard anti-oxidants was carried out to obtain concentration in the range of 3.9–1000 µM. Quercetin and ascorbic acid were used as standards. To a 100 μL of this solution, 100 μL of 200 µM DPPH^. in methanolic solution was added. The experiment was done in triplicate and the plate was then incubated for 30 min in the dark and later the absorbance was measured at 517 nm using Elisa reader. The percentage DPPH^. Scavenging was calculated using the formula, (Control Absorbance–Test Absorbance)*100/(Control Absorbance). The anti-oxidant activity of the test compounds was expressed in terms of concentration required for 50 percentage inhibition (IC50) (Collins [2005]).
(DPPH is a stable violet radical that fades when it is reduced.)

In assay [8] the test system is MCF-7 and HCT 116 cell lines. Nature of the assay: MTT cytotoxicity, IC50 range stated over MCF-7 and HCT 116. Type of assay: cell-based. Conditions: range over both cell lines; read-out: Cytotoxic activity IC50 range against MCF 7 and HCT 116. The protocol:
as §1, with “[2011]). […]” for “[2011]).”

For assay [9], the target named is CDK2/Cyclin A (Homo sapiens, UniProt P24941). In words: CDK2/cyclin A inhibitory assay, Z'-LYTE FRET kinase assay. Type of assay: biochemical. As to conditions: concentration of 100 micro molar; 1000 ng/ml kinase, 1000 µM ATP. An excerpt:
Z’-LYTE® technology involves homogeneous assay design based on FRET and is a universal platform for both screening as well as profiling protein kinases. The assay uses a peptide substrate labeled with two different fluorophores, coumarin donor and fluorescein acceptor on each end. These two fluorophores make up a FRET pair, which allows the transfer of energy when both are present on the same molecule. The initial kinase reaction transfers the ϒ-phosphate of ATP to a tyrosine or serine/threonine residue on the substrate. In a secondary reaction, referred to as the development reaction, a site-specific protease recognizes and cleaves only non-phosphorylated peptide, while phosphorylated substrate remains uncleaved. […] Upon excitation of Coumarin at 400 nm, the FRET signal is measured as a ratio between the Coumarin donor emission at 445–460 nm and the fluorescein acceptor emission at 520–535 nm(Lebakken et al. [2007]).
Initial ten-fold and two-fold dilutions of Kinase and ATP concentrations were used to choose the optimal Kinase and ATP concentration based on the % Phosphorylation.
The assay was carried out according to the kit instructions (384 well format). Briefly, 5X kinase buffer [250 mM HEPES (pH 7.5), 50 mM MgCl2, 5 mM EGTA, 0.05% BRIJ-35] was diluted to 1X using distilled water. The phosphor peptide positive control (Z’-LYTE® Tyr 4 phospho-peptide) and the non-phosphorylated negative control (Z’-LYTE® Tyr 4 peptide) were then diluted to 1:500 with 1× kinase buffer to 2 μM. […] Working development solution was then made by diluting 12 μL of the provided stock solution with 388 μL of the provided development buffer. Aliquots (20 μL) of each peptide mixture were then added to the wells of a Corning 3914 solid white microplate in replicates of 8. The development reaction was initiated by the addition of 10 μL of working development-solution to all the wells. Further, the plates were allowed to incubate at room temperature for 60 min. Reactions were then stopped by the addition of 10 μL of stop solution (Jia et al. [2008]).
Reactions were quantitated using a Tecan Robotic Microplate Reader. Reader control, blank subtraction, ratio metric calculations and finally graph plotting were carried out using Gen5™ Data Analysis Software.
The CDK2/Cyclin A assay was carried out as per the manufacturer’s instruction using suitable controls and standard.
The inhibitory assay was carried out using the stock of 10 mM in DMSO. Samples were further serially diluted to obtain concentrations of 100 μM. The concentrations were chosen based on the IC50 values obtained in the MTT assay. A total of 23 analogues were selected for the assay based on their antiproliferative activity. Further, selected compounds were screened and tested against the target CDK2/Cyclin A, and their % phosphorylation and % inhibition were recorded.

Take `COc1cc2c(c(OC)c1OC)-c1ccc(OC)c(=O)cc1[C@@H](NC(C)=O)CC2` [Colchicine, reference compound]: in assay [1], the “percentage cell population G2/M phase” value turned out to be 43.78, the “percentage cell population GO/G1 phase” value was 47.39 and the “percentage cell population S phase” value was found to be 8.61.
With `COc1cccc2c1C(=O)c1c(O)c3c(c(O)c1C2=O)C[C@@](O)(C(=O)CO)C[C@@H]3O[C@H]1C[C@H](N)[C@H](O)[C@H](C)O1` [Doxorubicin, reference compound], the IC50 in [2] (Homo sapiens, MCF7, 24 h) is 0.68 µM. In assay [3] (Homo sapiens, HCT-116, 24 h), the IC50 is 8.11 µM. Further, the IC50 in assay [4] (Chlorocebus sabaeus, Vero) was found to be 165 µM. For the same compound, in [5], the “FACS analysis of apoptosis detection, Early apoptotic” value came to 4.44; the “FACS analysis of apoptosis detection, Late apoptotic” value came out at 26.61; the “FACS analysis of apoptosis detection, Necrotic” value is 19.86; the “FACS analysis of apoptosis detection, Viable cells” value is given as 49.09. For the same compound, in assay [5], the apoptotic index stood at 26.61%.
Consider `COc1cc(OC)c(C2=CCN(C)CC2)c2c1C(=O)/C(=C/c1ccccc1Br)O2` [NMA2], for which the IC50 was 66.5 ± 2.02 µM in assay [6]; 83.2 ± 6.42 µM in [7]; 26.8 µM in assay [2] (Homo sapiens, MCF7, 24 h); 34.9 µM in assay [3] (Homo sapiens, HCT-116, 24 h); 154 µM in assay [4] (Chlorocebus sabaeus, Vero); 21.2 to 44 µM in assay [8]. In assay [9], the “% inhibition on CDK2/cyclin A” value stood at 35.350%.
On to `CCCN1CC=C(c2c(OC)cc(OC)c3c2O/C(=C\c2ccc4ccccc4c2)C3=O)CC1` [NPA1], for which the IC50 in assay [6] worked out at 101 ± 2.81 µM; in assay [7], 133 ± 19.1 µM; in [2] (24 h), 75 µM; in assay [3] (24 h), 94.3 µM; in assay [4] it was 166 µM. The “% inhibition on CDK2/cyclin A” value in [9] amounted to 16.089%.
As to `CCCN1CC=C(c2c(OC)cc(OC)c3c2O/C(=C\c2ccc(N(C)C)cc2)C3=O)CC1` [NPA2], the IC50 in assay [6] amounted to 99.3 ± 1.14 µM; in assay [7] it was 119 ± 12.9 µM; in assay [2] (24 h), 46.9 µM; in assay [3] (24 h), 87.3 µM; in [4], 172 µM. In [9], the “% inhibition on CDK2/cyclin A” value is 13.664%.
Consider `CCCN1CC=C(c2c(OC)cc(OC)c3c2O/C(=C\c2ccc(Cl)cc2)C3=O)CC1` [NPA4], for which the IC50 in assay [6] was 134 ± 3.71 µM; in assay [7] it was 162.34 ± 0.06 µM; in [2] (24 h) it was 42.1 µM; in assay [3] (24 h), 44 µM; in [4], 102 µM. Further, the “% inhibition on CDK2/cyclin A” value in assay [9] is recorded as 14.753%.
For the compound `CCCN1CC=C(c2c(OC)cc(OC)c3c2O/C(=C\c2ccc(OC)c(OC)c2)C3=O)CC1` [NPA5], the IC50 in assay [6] stood at 76.1 ± 1.75 µM; in assay [7], 89.7 ± 9.65 µM; in assay [2] (24 h), 68.5 µM; in assay [3] (24 h) it was 74.3 µM; in assay [4] it was 99.9 µM. For the same compound, in assay [9], the “% inhibition on CDK2/cyclin A” value stood at 12.547%.
